Calls of active or inactive are those of the source. The rule behind the calls is not given here.
Experiments:
[1] = molecular target: Cholinesterase (Equus caballus, UniProt P81908); test: Inhibition of equine serum BuChE using butyrylthiocholine iodide as substrate incubated for 10 mins followed by substrate addition by DTNB-reagent based Ellman's colorimetric assay
[2] = molecular target: Cholinesterase (Homo sapiens, UniProt P06276); test: Inhibition of human BuChE using butyrylthiocholine iodide as substrate incubated for 10 mins followed by substrate addition by DTNB-reagent based Ellman's colorimetric assay
Sequence of Cholinesterase (Homo sapiens, UniProt P06276) (P06276 whole entry): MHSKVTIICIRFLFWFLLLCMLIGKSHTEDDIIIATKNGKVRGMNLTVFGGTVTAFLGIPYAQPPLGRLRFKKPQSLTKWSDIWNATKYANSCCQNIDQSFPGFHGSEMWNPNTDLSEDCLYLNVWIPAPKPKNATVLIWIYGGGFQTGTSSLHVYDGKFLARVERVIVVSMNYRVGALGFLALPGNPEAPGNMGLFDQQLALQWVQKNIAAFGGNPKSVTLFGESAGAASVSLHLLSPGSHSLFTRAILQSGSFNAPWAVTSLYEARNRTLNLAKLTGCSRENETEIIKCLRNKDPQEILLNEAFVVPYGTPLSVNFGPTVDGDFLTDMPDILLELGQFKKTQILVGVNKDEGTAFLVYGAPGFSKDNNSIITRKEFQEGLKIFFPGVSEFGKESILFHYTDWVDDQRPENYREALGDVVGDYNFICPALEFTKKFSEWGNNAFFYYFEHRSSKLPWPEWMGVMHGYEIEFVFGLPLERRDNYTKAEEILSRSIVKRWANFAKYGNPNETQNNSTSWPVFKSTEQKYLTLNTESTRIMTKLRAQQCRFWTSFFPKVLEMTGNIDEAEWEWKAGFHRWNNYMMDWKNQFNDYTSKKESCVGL

[3] = test system: PC-12; test: Cytotoxicity against rat PC12 cells assessed as inhibition of cell growth measured after 24 hrs by MTT assay; format: functional, cell-based; conditions: PC-12, 24 h
[4] = test system: SH-SY5Y; test: Cytotoxicity against human SH-SY5Y cells assessed as inhibition of cell growth measured after 24 hrs by MTT assay; format: functional, cell-based
[5] = Cytotoxicity against mouse BV-2 cells assessed as survival rate at 100 uM measured after 24 hrs by MTT assay relative to control; format: toxicity, cell-based; conditions: read-out: Survival
[6] = test system: L02; test: Cytotoxicity against human L02 cells assessed as survival rate at 100 uM measured after 24 hrs by MTT assay relative to control; format: functional; conditions: read-out: Survival
[7] = test system: PC-12; test: Cytotoxicity against rat PC12 cells assessed as survival rate at 100 uM measured after 24 hrs by MTT assay relative to control; conditions: PC-12, 24 h, read-out: Survival
[8] = test system: SH-SY5Y; test: Cytotoxicity against human SH-SY5Y cells assessed as survival rate at 2.5 uM measured after 24 hrs by MTT assay relative to control; format: functional; conditions: read-out: Survival
[9] = Cytotoxicity against mouse BV-2 cells assessed as inhibition of cell growth measured after 24 hrs by MTT assay; format: toxicity, cell-based
[10] = test system: Mus musculus; test: Neuroprotective activity against Abeta42 induced cognition impairement in AD mouse model assessed as reduction in latency time to platform at 10 mg/kg, po measured after 14 days by Morris water maze analysis; format: functional, organism-based; conditions: time 14.0 day
[11] = test system: Mus musculus; test: Neuroprotective activity against Abeta42 induced cognition impairement in AD mouse model assessed as reduction in confusion of escape trajectory at 10 mg/kg, po measured after 14 days; format: functional, organism-based; conditions: time 14.0 day
[12] = test system: L02; test: Cytotoxicity against human L02 cells assessed as inhibition of cell growth measured after 24 hrs by MTT assay; format: functional, cell-based; conditions: L02, 24 h
[13] = test system: L02; test: Cytotoxicity against human L02 cells assessed as survival rate at 2.5 uM measured after 24 hrs by MTT assay relative to control; format: functional; conditions: read-out: Survival
[14] = test system: SH-SY5Y; test: Cytotoxicity against human SH-SY5Y cells assessed as survival rate at 100 uM measured after 24 hrs by MTT assay relative to control; format: functional; conditions: read-out: Survival

Sequence of Cholinesterase (Equus caballus, UniProt P81908) (P81908 whole entry): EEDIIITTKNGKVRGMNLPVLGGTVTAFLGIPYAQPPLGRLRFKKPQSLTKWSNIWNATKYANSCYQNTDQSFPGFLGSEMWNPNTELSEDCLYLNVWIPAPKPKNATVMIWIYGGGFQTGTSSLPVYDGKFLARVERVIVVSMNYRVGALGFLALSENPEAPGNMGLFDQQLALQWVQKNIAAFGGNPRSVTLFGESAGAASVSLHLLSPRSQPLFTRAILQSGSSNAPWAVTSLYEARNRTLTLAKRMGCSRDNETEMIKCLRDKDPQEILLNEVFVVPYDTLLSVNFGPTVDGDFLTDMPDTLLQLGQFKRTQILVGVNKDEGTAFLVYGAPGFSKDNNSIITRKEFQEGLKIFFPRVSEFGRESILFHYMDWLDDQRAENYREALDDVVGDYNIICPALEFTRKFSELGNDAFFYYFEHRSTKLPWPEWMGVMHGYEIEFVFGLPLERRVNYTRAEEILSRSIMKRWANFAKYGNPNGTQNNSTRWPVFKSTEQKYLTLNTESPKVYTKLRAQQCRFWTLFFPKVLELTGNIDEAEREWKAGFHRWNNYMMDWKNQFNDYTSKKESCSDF

SMILES | IC50 [1] | IC50 [2] | IC50 [3] | IC50 [4] | viability at 24 h, 100 µM [5] | viability at 100 µM [6] | viability at 100 µM [7] | viability at 2.5 µM [8] | IC50 at 24 h [9] | Activity [10] | Activity [11] | IC50 [12] | viability at 2.5 µM [13] | viability at 100 µM [14]
Nc1nonc1-c1nc2ccccc2n1CC(=O)Nc1ccc([N+](=O)[O-])c(Cl)c1 | 11 nM | 749 nM | 27800 nM | 24900 nM | 52.6% | 52.6% | – | – | – | – | – | – | – | –
COc1cc(NC(=O)Cn2c(-c3nonc3N)nc3ccccc32)cc(OC)c1 | 107 nM | 309 nM | – | – | – | 72.8% | 88.8% | 24.6% | 6300 nM | – | – | – | – | –
Nc1nonc1-c1nc2ccccc2n1CC(=O)Nc1cc(Cl)cc(Br)c1 | 1.61 nM | 75.7 nM | 37800 nM | – | 59.9% | 80.3% | – | 43.6% | – | – | – | – | – | –
Nc1nonc1-c1nc2ccccc2n1CC(=O)Nc1cc(F)cc(Br)c1 | 14.3 nM | 62.2 nM | – | – | 88.4% | 88.4% | 88.3% | 44.2% | – | – | – | – | – | –
COc1cc2c(cc1OC)C(=O)C(CC1CCN(Cc3ccccc3)CC1)C2 (centres undefined) | – | – | – | – | – | – | – | – | – | Active | Active | – | – | –
Cc1cc(C)cc(NC(=O)Cn2c(-c3nonc3N)nc3ccccc32)c1 | 13 nM | 885 nM | – | 7500 nM | 85.9% | 85.9% | 69.7% | – | – | – | – | – | – | –
Nc1nonc1-c1nc2ccccc2n1CC(=O)Nc1cc(Br)cc(C(F)(F)F)c1 | 4.21 nM | 12.4 nM | 11400 nM | – | 56.3% | 75.8% | – | 44.7% | – | – | – | – | – | –
Nc1nonc1-c1nc2ccccc2n1CC(=O)Nc1cc(Cl)cc(C(F)(F)F)c1 | 2.63 nM | 113 nM | 46200 nM | 10600 nM | 90% | – | – | – | – | – | – | 2480 nM | – | –
Nc1nonc1-c1nc2ccccc2n1CC(=O)Nc1cc(Cl)cc(Cl)c1 | 4.27 nM | 30.4 nM | 13600 nM | – | 52.1% | 94.2% | – | 45.8% | – | – | – | – | – | –
Nc1nonc1-c1nc2ccccc2n1CC(=O)Nc1ccc(F)cc1Br | 119 nM | 35.7 nM | – | – | – | 89% | 86.6% | 22.4% | 730 nM | – | – | – | – | –
Cc1cc(NC(=O)Cn2c(-c3nonc3N)nc3ccccc32)cc([N+](=O)[O-])c1 | 47.6 nM | 278 nM | 28800 nM | 58900 nM | 79.8% | 79.1% | – | – | – | – | – | – | – | –
Cc1ccc2cc(NC(=O)Cn3c(-c4nonc4N)nc4ccccc43)ccc2n1 | – | – | – | – | – | 61.5% | – | – | – | – | – | – | – | –
Nc1nonc1-c1nc2ccccc2n1CC(=O)Nc1cc([N+](=O)[O-])cc(C(F)(F)F)c1 | 0.35 nM | 71.6 nM | 18000 nM | 15400 nM | 57.5% | 57.5% | – | – | – | – | – | – | – | –
Cc1cc(Cl)cc(NC(=O)Cn2c(-c3nonc3N)nc3ccccc32)c1 | 9.16 nM | 101 nM | – | – | 56.3% | 65.9% | 54.3% | 32.1% | – | – | – | – | – | –
N#Cc1cc(Cl)cc(NC(=O)Cn2c(-c3nonc3N)nc3ccccc32)c1 | 2.04 nM | 83.9 nM | – | – | 64.7% | – | 87% | 24.6% | – | – | – | – | 44.5% | –
COC(=O)c1cc(NC(=O)Cn2c(-c3nonc3N)nc3ccccc32)cc(C(=O)OC)c1 | 1.48 nM | 222 nM | – | 58000 nM | – | 84% | 50.5% | – | 40400 nM | – | – | – | – | –
Nc1nonc1-c1nc2ccccc2n1CC(=O)Nc1ccc([N+](=O)[O-])c(Br)c1 | 33.7 nM | 730 nM | – | – | – | – | 51.4% | – | 5490 nM | – | – | 5490 nM | – | 70.5%
Cc1cc(Br)cc(NC(=O)Cn2c(-c3nonc3N)nc3ccccc32)c1 | 6.38 nM | 218 nM | – | – | 92.6% | 71.4% | 58.9% | 31% | – | – | – | – | – | –
Nc1nonc1-c1nc2ccccc2n1CC(=O)Nc1cc(Br)cc(Br)c1 | 3.84 nM | 27.9 nM | 6560 nM | – | 52% | 85.3% | – | 27.3% | – | – | – | – | – | –
Nc1nonc1-c1nc2ccccc2n1CC(=O)Nc1cc(F)cc(Cl)c1 | 5.32 nM | 155 nM | – | – | 111% | 91.7% | 58% | 28.1% | – | – | – | – | – | –
Nc1nonc1-c1nc2ccccc2n1CC(=O)Nc1cc(C(F)(F)F)cc(C(F)(F)F)c1 | 7.72 nM | 935 nM | – | – | 100% | 74.2% | 50.2% | 46.1% | – | – | – | – | – | –
Cc1cc(F)cc(NC(=O)Cn2c(-c3nonc3N)nc3ccccc32)c1 | 57.8 nM | 453 nM | – | – | 97.5% | 80% | 75.8% | 26.3% | – | – | – | – | – | –
Nc1nonc1-c1nc2ccccc2n1CC(=O)Nc1cc(F)cc(F)c1 | 58 nM | 3680 nM | – | – | – | 60.6% | 84.4% | – | 25400 nM | – | – | – | – | 56.2%
